Test system: A549-GFP cells (A549/lung cancer cells)
Assay: Proliferation assay (fluorescence intensity) of A549-GFP cells treated with MLPC and/or doxorubicin
Format: cell-based, human
Conditions: doxorubicin alone 0.8 μM or 4 μM, 72 hours, FIG. 7
Protocol: Single cell suspensions of A549-GFP, A549-LG, and SKOV3-LG were obtained after trypsinization of the monolayer cultures and counted by trypan blue exclusion. In brief, the cells were seeded at various densities of 1000, 2000, 4000, 5000, 6000, and 10.000 cells into black microliter plates (Nunc) and incubated in 200 microliter culture medium for 3 days. Then the supernatant of cell culture were replaced by 100 microliter Dulbecco's Phosphate buffered saline (DPBS). The fluorescence intensity was determined by excitation and emission on fluorescent microplate reader (BMG).
Single cell suspensions of A549-GFP and SKOV3-LG were obtained by trypsinization of the monolayer cultures and counted by trypan blue exclusion. The proliferation of cancer cells, in particular the downregulation of proliferation, was evaluated by individual, simultaneous, two-stage models. MLPC and a chemotherapeutic drug were added simultaneously to A549-GFP and SKOV3-LG cells for 3 days. In a two-stage experiment, in the first stage MLPC were added to A549-GFP and SKOV3-LG cells for 3 days. In the second stage, supernatants of cells were removed and a chemotherapeutic drug was added for 3 days. […] Fluorescence intensities were determined to evaluate the effect on cancer cell proliferation of the various treatments and control.

For COc1cccc2c1C(=O)c1c(O)c3c(c(O)c1C2=O)C[C@@](O)(C(=O)CO)C[C@@H]3O[C@H]1C[C@H](N)[C@H](O)[C@H](C)O1 [doxorubicin], the “cancer cell proliferation (relative fluorescence intensity)” value was “significantly reduced cancer cell proliferation”.

Reference: patent US20170007644A1, “A METHOD OF TREATING NEOPLASIA” (FUWAN PTY LTD, priority 2013, published 2017)
